Source: patent publication US9388389B2, “JFH-1 based HCV cell culture systems for NS5A of genotypes 1-7” (Hvidovre Hospital, priority 2009, dated 2016)
Where “and” joins values, the source holds several entries; their conditions need not be identical. Equal entries are not always repeated.

Tests used:
Huh7.5 cells [1] = assay: Genetic stability, direct sequencing of complete ORF after passage; conditions: Table 2; ORF sequenced after passage to naïve cells
Description: RNA was extracted from cell culture supernatant using (Highly Pure Viral Nucleic Acid Kit™, Roche, Mannheim, Del.). RT-PCR was done using SuperScriptIII™ (Invitrogen, Carlsbad, Calif., USA). In 1st round PCR the Advantage 2 PCR Enzyme System was used. Cycle parameters were 35 s at 99° C., 30 s at 67° C. and 10 min (cycle 1-5), 11 min (cycle 6-15), 12 min (cycle 16-25) or 13 min (cycle 26-35) at 68° C. 12˜1 kb products were synthesized in overlapping nested PCRs covering the entire ORF using primer pairs as previously described. Primer pairs 8, 9 and 10 were modified to the genotype specific NS5A sequence (Table 20, SEQ ID NO 163-192). Cycle parameters were 35 s at 99° C. followed by 35 cycles with 35 s at 99° C., 30 s at 67° C. and 6 min at 68° C.
All sequence reactions were performed at Macrogen Inc., Seoul, South Korea. Sequence analysis was performed with Sequencher™ (Gene Codes Corporation) Vector NTI 11 (Invitrogen) and BioEdit™ (Tom Hall, Ibis Therapeutics). HCV sequences were retrieved from the European HCV database (euHCVdb; at the http: internet location //euhcvdb.ibcp.fr/euHCVdb/) and the Los Alamos HCV sequence database (LANL; at the http: Internet location //hcv.lanl.gov/content/hcv-db/index).
Genetic stability of NS5A recombinants after passage to naïve cells. Supernatant samples from transfection culture were passaged to naïve Huh7.5 cells and the complete ORF was sequenced after spread of infection in culture to check for further need of adaptation.

Huh7.5 cells [2] = assay: Infectivity titers (FFU) in supernatant after RNA transfection or viral passage; type: cell-based; conditions: for Transfection Log(FFU/mL) / 1st passage Log(FFU/mL): Table 1b; for Transfection Log(FFU/mL): maximum infectivity titer after transfection, Core-NS2 and NS5A of same genotype; for 1st passage Log(FFU/mL): maximum infectivity titer, two values separated by slash = two independent passages; for Peak titers Transfection Log (FFUs/mL) / Peak titers Viral passage Log (FFUs/mL): Table 2; for Peak titers Transfection Log (FFUs/mL): maximum infectivity titer observed in transfection experiments; for Peak titers Viral passage Log (FFUs/mL): maximum infectivity titer observed in viral passage experiments
Description: (§1) To determine the efficiency of the developed system, HCV RNA titers are determined in IU/ml (international units/ml) with Taq-Man Real-Time-PCR and infectious titers are determined with a focus-forming units (FFU) method: in this method, infectivity titers are determined by infection of cell culture replicates with serial dilutions of virus containing supernatants and, following immuno-stainings for HCV antigens, counting of HCV-antigen positive cell foci. Alternatively the infectious titers are determined as 50% tissue culture infectious dose.
(§2) Culturing of Huh7.5 cells was done as described by Gottwein et al. 2007. One day prior to transfection or infection, naïve Huh7.5 cells were plated at 4×10^5/well in 6-well plates. In vitro transcription was carried out for 2 hours with T7 RNA polymerase (Promega) on 5 μg plasmid linearized with XbaI and treated with Mung Bean Nuclease (New England Biolabs, Beverly, Mass., USA) to yield the exact HCV 3′ end. For transfection, 2.5 μg of unpurified RNA transcripts were incubated with 5 μL Lipofectamine2000™ (Invitrogen) in 500 μL Opti-MEM (Invitrogen) for 20 min at room temperature. RNA-Lipofectamine2000™ transfection complexes were left on cells for 16-24 hours before washing. For infection, virus-containing supernatant was left on cells for 6-24 hours. Supernatants collected during experiments were sterile filtered and stored at −80° C.
(§3) Anti-Core immunostaining was done with mouse anti-HCV Core protein monoclonal antibody (B2) (Anogen Mississauga, Ontario, Canada) as primary antibody and Alexa Fluor 594 goat anti-mouse IgG (H+L) (Invitrogen) as secondary antibody. HCV RNA titers were determined by a TaqMan™ real-time PCR assay. Infectivity titers were determined as follows: 6×10^3 naïve Huh7.5 cells were plated per well in a poly-D-lysine coated 96-well plate (Nunc) one day before inoculation with three replicates of individual 10-fold dilutions of cell culture supernatants. Inocula were left on cells for 48 hours and cells were fixed using ice could methanol. After washing, blocking buffer (1% BSA, 0.2% skim milk) was added for 20 min and endogenous peroxidases were inhibited by application of H2O2 for 5 min. Primary antibody (anti-NS3, clone H26, Abcam, Cambridge, UK) diluted 1:1000 was left on cells for 3-4 days. Secondary antibody was ECL anti-mouse IgG HRP-linked whole antibody (GE Healthcare Amersham, Brondby, Denmark). Staining was developed using DAB substrate kit (DAKO, Glostrup, Denmark). The number of focus-forming units (FFU) per well were counted manually (dilutions with 5-100 FFU counted) or automatically. Automatic counting was performed on an ImmunoSpot Series 5 UV Analyzer™ (CTL Europe GmbH, Aalen, Baden-Württemberg, DE) with customized software. From FFU counts in experimental wells, the mean of spot counts of negative control wells was subtracted (typically around 5 spots).

Huh7.5 cells [3] = assay: HCV RNA titers by TaqMan real-time PCR; type: cell-based; conditions: for 1st passage Log(IU/mL): Table 1b, maximum HCV RNA titer, two values separated by slash = two independent passages
Description: as §1, §3

Huh7.5 cells [4] = assay: Spread of infection in culture, anti-Core immunostaining; type: cell-based; conditions: Huh7.5 cells, after transfection of RNA transcripts
Description: as §2, §3

| Substance | Genetically stable (Huh7.5 cells [1]) | Transfection Log(FFU/mL) (Huh7.5 cells [2]) | 1st passage Log(FFU/mL) (Huh7.5 cells [2]) | Peak titers Transfection Log (FFUs/mL) (Huh7.5 cells [2]) | Peak titers Viral passage Log (FFUs/mL) (Huh7.5 cells [2]) | infectivity titers in 1st passage / after passage to naïve cells (Huh7.5 cells [2]; naïve Huh7.5 cells) | 1st passage Log(IU/mL) (Huh7.5 cells [3]) | Peak titers Viral passage Log (IU/mL) (Huh7.5 cells [3]; Table 2, maximum HCV RNA titer in all passage samples analyzed) | spread in culture / to the majority of culture, day after transfection (Huh7.5 cells [4]) |
| --- | --- | --- | --- | --- | --- | --- | --- | --- | --- |
| J4/JFH12996, 4827(J4-NS5A)3893: J4 Core-NS2/NS5A recombinant with T3893A, SEQ ID NO 48 | Yes | 2.5 Log(FFU/mL) | <2.3 Log(FFU/mL) | 2.5 Log (FFUs/mL) | <2.3 Log (FFUs/mL) |  |  |  |  |
| J4/JFH12996, 4827(J4-NS5A): JFH1-based recombinant with Core-NS2 and NS5A of genotype 1b J4, SEQ ID NO 47 |  |  | 1.0 Log(FFU/mL) and 1.3 Log(FFU/mL) |  |  |  |  |  |  |
| QC69/JFH12985(QC69-NS5A): JFH1-based recombinant with Core-NS2 and NS5A of genotype 7a QC69, SEQ ID NO 58 | Yes | 2.7 Log(FFU/mL) | 4.1 Log(FFU/mL) | 2.7 Log (FFUs/mL) | 4.1 Log (FFUs/mL) | above 10^3 FFU/mL | 7.3 Log(IU/mL) | 7.3 Log (IU/mL) |  |
| S52/JFH12718, 4550(S52-NS5A)7625: S52 Core-NS2/NS5A recombinant with T7625C, SEQ ID NO 50 | Yes | 2.9 Log(FFU/mL) | 3.8 Log(FFU/mL) | 2.9 Log (FFUs/mL) | 3.8 Log (FFUs/mL) |  |  |  |  |
| S52/JFH12718, 4550(S52-NS5A): JFH1-based recombinant with Core-NS2 and NS5A of genotype 3a S52, SEQ ID NO 49 |  | 2.1 Log(FFU/mL) and 2.4 Log(FFU/mL) | 3.1 Log(FFU/mL) |  |  |  | 7.0 Log(IU/mL) |  |  |
| SA13/JFH1(SA13-NS5A): SA13 Core-NS2/NS5A recombinant without mutations adaptive for SA13/JFH1, SEQ ID NO 53 |  | 4.0 Log(FFU/mL) |  |  |  |  |  |  | 20 days |
| SA13/JFH13405, 3696(SA13-NS5A)6284, 7604: SA13 Core-NS2/NS5A recombinant with A6275G and T7604C, SEQ ID NO 55 | Yes | 4.5 Log(FFU/mL) | 3.8 Log(FFU/mL) | 4.5 Log (FFUs/mL) | 3.8 Log (FFUs/mL) |  |  |  |  |
